Assay results as given in US20250046404A1, “SYSTEMS AND METHODS RELATING TO A MACHINE LEARNING PREDICTION MODEL FOR PREDICTING MOLECULAR TARGETS OF SMALL MOLECULES” (KBR WYLE SERVICES, LLC, priority 2023, published 2025).

Tests used:
miR-451 [1] = assay: Zebrafish embryo erythrocyte accumulation with PTU, O-dianisidine hemoglobin stain; type: in vivo; details: for hemoglobinized cells / blood accumulation (O-dianisidine staining): 2-day-old embryos, lateral view, tail region, upon drug treatment
Procedure: Zebrafish embryos were incubated with different drug candidates predicted by sChemNET in combination with phenyl-thiourea (PTU), a chemical known to induce anemia due to oxidative stress when miR-451 activity is impaired, but not in wild-type embryos. 48 hours after fertilization, embryos display robust blood circulation. At this stage, the accumulation of mature erythrocytes can be easily assessed in transparent embryos using O-dianisidine, a hemoglobin-specific stain. Drugs impairing miR-451 activity induce anemia, while miR-451 boosting drugs will increase erythrocyte production (blood circulation).
Ventral images of 2-day-old embryos stained with O-dianisidine reveal hemoglobinized cells (brown staining).) for wild-type embryos and those treated with docetaxel, β-elemene and α-calcidol. Blood accumulated in the ventral region (ducts of Cuvier).

miR-144 = assay: Effect on levels of miR-144; type: in vivo, Zebrafish; details: erythrocyte specific miR-144
Description: (§1) Either mechanism of action may be valid, as both pathways will allow the desired output, which complements miRNA activity.
(§2) Dicer processes miR-144, but at the same time is a target of miR-144 (PMID: 32191872), effectively canceling a potential drug-induced increase in miR-144 output.

miR-451 [2] = assay: Effect on levels of miR-451; details: zebrafish, in vivo
Description: as §1, §2

Row | SMILES | hemoglobinized cells / blood accumulation (O-dianisidine staining) (miR-451 [1]) | levels of miR-144 (cluster partner of miR-451) (miR-144) | levels of miR-451 (miR-451 [2]) | blood production (miR-451 [1]; zebrafish, in vivo)
1 | CC(=O)O[C@@]12CO[C@@H]1C[C@H](O)[C@@]1(C)C(=O)[C@H](O)C3=C(C)[C@@H](OC(=O)[C@H](O)[C@@H](NC(=O)OC(C)(C)C)c4ccccc4)C[C@@](O)([C@@H](OC(=O)c4ccccc4)[C@H]21)C3(C)C [docetaxel] | accumulation of the excess of blood in the tail region | – | – | –
2 | C=C1/C(=C\C=C2/CCC[C@]3(C)[C@@H]([C@H](C)CCCC(C)C)CC[C@@H]23)C[C@@H](O)C[C@@H]1O [α-Calcidol] | accumulation of the excess of blood in the tail region | does not directly affect the levels | does not directly affect the levels | boosts blood production
3 | C=C[C@]1(C)CC[C@@H](C(=C)C)C[C@H]1C(=C)C [β-elemene] | accumulation of the excess of blood in the tail region | – | – | –
